Data taken from article PMC8402619 (Viruses, 2021).
pIC50: −log10 of the molar value.

Experiments:
[1] = Renal clearance after 1 mg/kg intravenous, rat; assay type: in vivo, male Wistar-Hannover rats; conditions: 1 mg/kg intravenously
CYP2D6 = CYP2D6 (Homo sapiens, UniProt P10635); test: Reversible CYP inhibition in pooled human liver microsomes; assay type: in vitro ADME
BSEP = target: T1, BSEP (Homo sapiens, UniProt O95342); test: Inhibition of ATP-dependent probe uptake in Sf9 membrane vesicles; assay type: in vitro ADME; conditions: BSEP-mediated ATP-dependent uptake of taurocholic acid
T1 construct: purchased Thermo Fisher Scientific; host or cells: Sf9
T1 sequence (O95342 whole entry): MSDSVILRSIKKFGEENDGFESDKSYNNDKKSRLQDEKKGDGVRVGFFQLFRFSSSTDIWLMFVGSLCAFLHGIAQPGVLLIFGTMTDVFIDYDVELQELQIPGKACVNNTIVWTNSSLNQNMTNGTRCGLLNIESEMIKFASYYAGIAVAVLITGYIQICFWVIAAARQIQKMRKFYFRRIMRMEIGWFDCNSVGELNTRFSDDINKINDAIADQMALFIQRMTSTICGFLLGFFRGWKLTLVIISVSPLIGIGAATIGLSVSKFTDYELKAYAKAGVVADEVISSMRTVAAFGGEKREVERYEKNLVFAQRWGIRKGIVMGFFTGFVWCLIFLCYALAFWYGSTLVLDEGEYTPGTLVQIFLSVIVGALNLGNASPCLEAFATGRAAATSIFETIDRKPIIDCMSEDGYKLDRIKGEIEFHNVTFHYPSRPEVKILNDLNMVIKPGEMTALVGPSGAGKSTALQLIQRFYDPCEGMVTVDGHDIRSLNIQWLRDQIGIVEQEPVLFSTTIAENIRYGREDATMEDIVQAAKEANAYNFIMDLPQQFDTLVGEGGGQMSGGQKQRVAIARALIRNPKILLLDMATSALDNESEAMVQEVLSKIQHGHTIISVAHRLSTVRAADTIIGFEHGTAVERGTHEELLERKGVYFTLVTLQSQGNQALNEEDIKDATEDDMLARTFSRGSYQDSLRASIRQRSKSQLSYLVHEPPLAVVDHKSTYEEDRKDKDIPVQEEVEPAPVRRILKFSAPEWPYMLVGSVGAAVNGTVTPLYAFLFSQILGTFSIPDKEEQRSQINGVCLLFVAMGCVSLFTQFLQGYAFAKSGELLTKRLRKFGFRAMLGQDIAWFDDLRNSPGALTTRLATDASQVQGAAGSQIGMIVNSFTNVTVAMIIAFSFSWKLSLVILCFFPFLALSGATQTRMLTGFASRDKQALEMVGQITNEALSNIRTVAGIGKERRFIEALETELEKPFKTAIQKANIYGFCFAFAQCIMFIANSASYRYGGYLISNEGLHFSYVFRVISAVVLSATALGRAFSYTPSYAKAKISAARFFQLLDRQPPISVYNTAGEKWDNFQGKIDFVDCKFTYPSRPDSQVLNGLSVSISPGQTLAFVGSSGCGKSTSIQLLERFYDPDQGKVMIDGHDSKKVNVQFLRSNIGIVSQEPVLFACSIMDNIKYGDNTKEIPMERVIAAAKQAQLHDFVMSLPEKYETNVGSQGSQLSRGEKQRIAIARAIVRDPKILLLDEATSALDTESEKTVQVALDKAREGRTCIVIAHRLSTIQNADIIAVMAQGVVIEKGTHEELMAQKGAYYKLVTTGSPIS

CYP2C9 = CYP2C9 (Homo sapiens, UniProt P11712); test: Time-dependent CYP inhibition in pooled human liver microsomes; assay type: in vitro ADME
Chain of CYP2C9 (P11712 whole entry): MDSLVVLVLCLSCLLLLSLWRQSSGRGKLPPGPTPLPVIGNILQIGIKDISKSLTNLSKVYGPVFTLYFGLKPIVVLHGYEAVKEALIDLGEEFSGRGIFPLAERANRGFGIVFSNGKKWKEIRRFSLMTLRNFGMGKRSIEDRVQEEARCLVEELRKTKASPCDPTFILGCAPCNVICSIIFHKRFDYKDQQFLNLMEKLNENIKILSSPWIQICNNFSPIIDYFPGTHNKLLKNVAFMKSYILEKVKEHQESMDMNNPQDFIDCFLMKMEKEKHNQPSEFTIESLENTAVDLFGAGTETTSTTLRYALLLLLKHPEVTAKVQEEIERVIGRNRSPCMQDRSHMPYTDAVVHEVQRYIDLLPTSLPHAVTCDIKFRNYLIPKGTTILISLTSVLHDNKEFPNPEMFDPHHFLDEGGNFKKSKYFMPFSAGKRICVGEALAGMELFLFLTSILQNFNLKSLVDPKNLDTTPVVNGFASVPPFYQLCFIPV

[2] = Plasma protein binding by equilibrium dialysis, mouse plasma; assay type: in vitro ADME; conditions: pH 7.4
[3] = Renal clearance after 1 mg/kg intravenous, monkey; assay type: in vivo, rhesus monkeys; conditions: rhesus monkey, 1 mg/kg intravenously
[4] = Projected human exposure for a 60 mg oral dose
CYP2B6 = test: CYP induction in cryopreserved human hepatocytes; conditions: for mRNA Mean Fold Change ± SD CYP2B6: 48 h, n = 3 donors, vs DMSO vehicle
CYP2C8 = target: T2, CYP2C8 (Homo sapiens, UniProt P10632); test: Time-dependent CYP inhibition in pooled human liver microsomes; assay type: in vitro ADME
T2 sequence (P10632 1-490): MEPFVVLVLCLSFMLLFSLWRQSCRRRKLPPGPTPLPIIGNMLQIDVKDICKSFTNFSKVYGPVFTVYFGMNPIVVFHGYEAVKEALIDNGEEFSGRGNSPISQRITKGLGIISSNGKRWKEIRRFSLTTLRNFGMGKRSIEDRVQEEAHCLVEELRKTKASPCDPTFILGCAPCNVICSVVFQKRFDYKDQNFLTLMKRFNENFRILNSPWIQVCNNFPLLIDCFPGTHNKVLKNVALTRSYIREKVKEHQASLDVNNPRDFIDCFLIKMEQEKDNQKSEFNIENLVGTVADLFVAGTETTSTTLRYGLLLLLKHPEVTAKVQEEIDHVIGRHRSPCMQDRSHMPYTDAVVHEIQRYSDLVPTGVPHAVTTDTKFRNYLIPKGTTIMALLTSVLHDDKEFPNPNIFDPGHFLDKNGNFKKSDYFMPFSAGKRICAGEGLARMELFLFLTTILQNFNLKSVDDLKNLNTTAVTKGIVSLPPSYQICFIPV

CYP3A4 [5] = test: CYP induction in cryopreserved human hepatocytes; assay type: in vitro ADME; conditions: for mRNA Mean Fold Change ± SD CYP3A4: 48 h, n = 3 donors, vs DMSO vehicle
CYP3A4 [6] = target: CYP3A4 (Homo sapiens, UniProt P08684); test: Reversible CYP inhibition in pooled human liver microsomes; assay type: in vitro ADME
Chain of CYP3A4 (Homo sapiens, UniProt P08684) (P08684 whole entry): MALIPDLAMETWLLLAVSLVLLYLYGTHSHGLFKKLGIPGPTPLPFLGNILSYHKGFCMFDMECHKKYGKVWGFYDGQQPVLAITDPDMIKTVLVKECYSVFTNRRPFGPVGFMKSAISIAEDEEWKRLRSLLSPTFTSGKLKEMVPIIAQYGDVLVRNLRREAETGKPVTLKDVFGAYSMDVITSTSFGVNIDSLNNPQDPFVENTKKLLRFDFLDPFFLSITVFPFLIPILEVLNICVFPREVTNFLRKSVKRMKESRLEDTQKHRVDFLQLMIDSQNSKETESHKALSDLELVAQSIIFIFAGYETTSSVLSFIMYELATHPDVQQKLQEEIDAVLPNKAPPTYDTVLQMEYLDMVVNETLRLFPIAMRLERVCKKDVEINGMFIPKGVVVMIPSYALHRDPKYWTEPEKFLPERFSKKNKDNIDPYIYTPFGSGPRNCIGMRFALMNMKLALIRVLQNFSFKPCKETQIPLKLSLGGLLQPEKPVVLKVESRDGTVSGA

CYP1A2 = target: T3, CYP1A2 (Homo sapiens, UniProt P05177); test: Time-dependent CYP inhibition in pooled human liver microsomes; assay type: in vitro ADME
T3 sequence (P05177 1-516): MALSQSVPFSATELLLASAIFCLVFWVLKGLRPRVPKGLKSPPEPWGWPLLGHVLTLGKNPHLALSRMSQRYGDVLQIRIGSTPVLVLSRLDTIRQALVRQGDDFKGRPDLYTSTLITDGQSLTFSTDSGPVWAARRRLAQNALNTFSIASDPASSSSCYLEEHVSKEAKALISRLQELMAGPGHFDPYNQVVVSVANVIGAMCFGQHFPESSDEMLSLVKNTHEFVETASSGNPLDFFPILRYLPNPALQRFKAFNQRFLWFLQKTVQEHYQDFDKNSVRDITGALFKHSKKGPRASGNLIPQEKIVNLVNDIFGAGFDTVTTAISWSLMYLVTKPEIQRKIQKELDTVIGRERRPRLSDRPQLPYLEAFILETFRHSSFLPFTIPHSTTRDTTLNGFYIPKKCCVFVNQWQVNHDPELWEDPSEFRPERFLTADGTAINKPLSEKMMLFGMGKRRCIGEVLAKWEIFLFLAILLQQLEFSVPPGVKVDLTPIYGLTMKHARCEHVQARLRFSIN

[7] = Plasma protein binding by equilibrium dialysis, rat plasma; assay type: in vitro ADME; conditions: pH 7.4

Chain of CYP2D6 (P10635 whole entry): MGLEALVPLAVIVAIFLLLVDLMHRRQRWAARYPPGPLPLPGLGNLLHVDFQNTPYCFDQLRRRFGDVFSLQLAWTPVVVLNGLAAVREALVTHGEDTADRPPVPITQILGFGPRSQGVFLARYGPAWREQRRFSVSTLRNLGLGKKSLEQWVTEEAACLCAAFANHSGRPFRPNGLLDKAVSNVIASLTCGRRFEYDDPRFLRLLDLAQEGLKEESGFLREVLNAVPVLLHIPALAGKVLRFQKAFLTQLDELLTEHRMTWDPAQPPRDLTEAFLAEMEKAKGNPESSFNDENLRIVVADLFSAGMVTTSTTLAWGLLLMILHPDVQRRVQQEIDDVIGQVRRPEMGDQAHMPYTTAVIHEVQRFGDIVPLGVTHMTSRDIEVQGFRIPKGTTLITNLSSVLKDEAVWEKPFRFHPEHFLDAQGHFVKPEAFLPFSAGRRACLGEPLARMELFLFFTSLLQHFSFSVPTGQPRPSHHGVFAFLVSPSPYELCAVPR

In the case of `C#C[C@]1(CO)O[C@@H](n2cnc3c(N)nc(F)nc32)C[C@@H]1O` [Islatravir, 4′-Ethynyl-2-fluoro-2′-deoxyadenosine], the “Renal Excretion (% Total Plasma Clearance)” value [1] was 17%, the CL renal ([1]; male, Wistar-Hannover, plasma and urine, iv, urine 0-24 h) was 11.5 mL/min/kg and the “DDI Potential” value (CYP2D6; CYP2D6 reversible inhibition, FDA, EMA, PMDA guidance) was “Low risk”. The “Maximum Unbound Plasma Concentration (Imax,u) to Ki,u Ratio” value (CYP2D6; CYP2D6 reversible, 60 mg, Cmax 1.01 µM, fu,p 0.96, Ki,u = IC50/2) was <0.019 µM, the pIC50 (CYP2D6; reversible, CYP2D6 dextromethorphan O-demethylation, read-out: Islatravir IC50) was < 4.00 and the pIC50 (BSEP) was < 4.00. For the same compound, the time-dependent inhibition (CYP2C9; CYP2C9, pre-incubation of 10 and 50 µM for up to 30 min) was “no time-dependent inhibition”, the “DDI Potential” value (CYP2C9; CYP2C9 time dependent inhibition) was “Low risk ^h” and the pIC50 (CYP2C9; time dependent, CYP2C9, read-out: Islatravir IC50) was < 4.30. For the same compound, the fraction unbound at 24 h, 0.1 µM [2] was > 0.84, the CL renal ([3]; plasma and urine, iv, urine 0-24 h) was 8.7 mL/min/kg and the “Renal Excretion (% Total Plasma Clearance)” value [3] was 51%. The “projected maximum free concentration at the liver inlet” value [4] was “approximately 10 µM”, the “mRNA Mean Fold Change ± SD CYP2B6” value (CYP2B6; 0.1 µM) was 0.5 ± 0.1 and the “mRNA Mean Fold Change ± SD CYP2B6” value (CYP2B6; 0.5 µM) was 0.5 ± 0.2. The “mRNA Mean Fold Change ± SD CYP2B6” value (CYP2B6; 1 µM) was 0.7 ± 0.2, the “mRNA Mean Fold Change ± SD CYP2B6” value (CYP2B6; 5 µM) was 0.7 ± 0.1 and the “mRNA Mean Fold Change ± SD CYP2B6” value (CYP2B6; 10 µM) was 0.9 ± 0.3. For the same compound, the “mRNA Mean Fold Change ± SD CYP2B6” value (CYP2B6; 20 µM) was 0.4 ± 0.3, the “mRNA response relative to positive control” value (CYP2B6; CYP2B6, each tested concentration 0.1-20 µM) was “less than 20%” and the “enzyme activity, fold of solvent control” value (CYP2B6; CYP2B6 bupropion hydroxylation, all islatravir concentrations) was ≤ 1.1 fold. The time-dependent inhibition (CYP2C8; CYP2C8, pre-incubation of 10 and 50 µM for up to 30 min) was “no time-dependent inhibition”, the “DDI Potential” value (CYP2C8; CYP2C8 time dependent inhibition) was “Low risk ^h” and the pIC50 (CYP2C8; time dependent, CYP2C8, read-out: Islatravir IC50) was < 4.30. The “mRNA Mean Fold Change ± SD CYP3A4” value (CYP3A4 [5]; 0.1 µM) was 0.6 ± 0.2, the “mRNA Mean Fold Change ± SD CYP3A4” value (CYP3A4 [5]; 0.5 µM) was 0.6 ± 0.2 and the “mRNA Mean Fold Change ± SD CYP3A4” value (CYP3A4 [5]; 1 µM) was 0.6 ± 0.2. For the same compound, the “mRNA Mean Fold Change ± SD CYP3A4” value (CYP3A4 [5]; 5 µM) was 0.5 ± 0.1, the “mRNA Mean Fold Change ± SD CYP3A4” value (CYP3A4 [5]; 10 µM) was 0.6 ± 0.1 and the “mRNA Mean Fold Change ± SD CYP3A4” value (CYP3A4 [5]; 20 µM) was 0.1 ± 0.1. The “mRNA response relative to positive control” value (CYP3A4 [5]; CYP3A4, each tested concentration 0.1-20 µM) was “less than 20%”, the “enzyme activity, fold of solvent control” value (CYP3A4 [5]; CYP3A4 testosterone 6β-hydroxylation, all islatravir concentrations) was ≤ 1.1 fold and the “DDI Potential” value (CYP3A4 [6]; CYP3A4 reversible inhibition, FDA, EMA, PMDA guidance) was “Low risk”. For the same compound, the “Maximum Unbound Plasma Concentration (Imax,u) to Ki,u Ratio” value (CYP3A4 [6]; CYP3A4 reversible, 60 mg, Cmax 1.01 µM, fu,p 0.96, Ki,u = IC50/2) was <0.010 µM, the “Intestinal Concentration (Igut) to Ki,u Ratio” value (CYP3A4 [6]; CYP3A4 reversible, Igut = 60 mg/250 mL = 818 µM) was <8.2 µM and the time-dependent inhibition (CYP1A2; CYP1A2, pre-incubation of 10 and 50 µM for up to 30 min) was “no time-dependent inhibition”. The “DDI Potential” value (CYP1A2; CYP1A2 time dependent inhibition) was “Low risk ^h”, the pIC50 (CYP1A2; time dependent, CYP1A2, read-out: Islatravir IC50) was < 4.30 and the fraction unbound at 24 h, 0.1 µM [7] was > 0.84.
